# Experimental data: article PMC12988607 (BMC Pharmacology & Toxicology, 2026)
# Where two headings read alike, the source gives them in different places.
# Assays:
# [1] = system: healthy Chinese volunteers; assay: Blood PD parameters; type: in vivo; settings: p < 0.05; for blood-GLU / insulin: fasting group; for blood-GLU: before EMPA (5.1 ± 0.4) mmol/L; for insulin: before EMPA (7.0 ± 3.7) mU/L
# [2] = system: healthy Chinese volunteers; assay: Urine PD parameters; type: in vivo; settings: for urine-GLU: 0~4 h after 10 mg EMPA, p < 0.001
# [3] = within 3 hours; cited from earlier work
# [4] = type: in vivo, healthy Chinese volunteers; settings: for AUC(0-t): AUC0-t; for AUC(0-t) / AUC(0-inf) / Cmax / Tmax: geometric mean; for AUC(0-inf): AUC0-∞; for half-life: t1/2, geometric mean
# [5] = system: healthy Chinese volunteers; assay: RAAS-related parameters; type: in vivo; settings: for Ang II: after EMPA
# [6] = cited from earlier work
# [7] = Fed (high-fat diet), single 10 mg EMPA
# [8] = human, plasma, oral, 10 mg, Fasting, single 10 mg EMPA
# [9] = human, plasma, oral, 10 mg, Fed (high-fat diet), single 10 mg EMPA
smiles,measurement,setting,value
"OC[C@H]1O[C@@H](c2ccc(Cl)c(Cc3ccc(O[C@H]4CCOC4)cc3)c2)[C@H](O)[C@@H](O)[C@@H]1O [EMPA, empagliflozin]",blood-GLU,[1]; 2 h after EMPA,4.8 ± 0.3 mmol/L
same,insulin,[1]; 2 h after EMPA,5.0 ± 2.2 mU/L
same,blood-GLU,[1]; 4 h after EMPA,4.7 ± 0.3 mmol/L
same,insulin,[1]; 4 h after EMPA,4.7 ± 3.2 mU/L
same,BUN,"[1]; fed group, 4 h after EMPA, before EMPA (4.4 ± 1.0) mmol/L",5.5 ± 1.0 mmol/L
same,SCr,"[1]; fed group, 4 h after EMPA, before EMPA (66.0 ± 8.4) mmol/L as printed",71.5 ± 9.7 µmol/L
same,eGFR,"[1]; fed group, 4 h after EMPA, before EMPA (141.6 ± 22.0)",128.3 ± 20.7 ml/min/1.73 m^2
same,blood-UA,"[1]; fed group, 4 h after EMPA, comparison value (369.2 ± 62.9) μmol/L",342.6 ± 57.6 µmol/L
same,urine-GLU,"[2]; fasting group (n = 19), before EMPA (0.3 ± 0.2) mmol/L",70.9 ± 29.9 mmol/L
same,β2-MG,"[2]; fasting group, urine after EMPA, before EMPA (0.148 ± 0.054) mg/L, p < 0.05",0.080 ± 0.065 mg/L
same,α1-MG,"[2]; fasting group, urine after EMPA, before EMPA (2.9 ± 1.7) mg/L, p < 0.05",1.9 ± 1.8 mg/L
same,"α1-MG level, after vs before EMPA","[2]; fed group (EMPA post-meal), urine",did not show a significant difference
same,urine-GLU,"[2]; fed group (n = 23), before EMPA (0.3 ± 0.3) mmol/L",89.6 ± 35.4 mmol/L
same,urine-UA,"[2]; fed group, after 4 h of EMPA administration, comparison value (2223.8 ± 891.1) mmol/L, p < 0.05",2751.5 ± 1018.1 mmol/L
same,β2-MG,"[2]; fed group, urine after EMPA, before EMPA (0.145 ± 0.075) mg/L, p < 0.05",0.094 ± 0.059 mg/L
same,increase in urinary glucose excretion,[3],27 times
same,Plasma concentrations Fasting/fed,[4]; 0.5 h after 10 mg EMPA,3.00
same,Plasma concentrations Fasting/fed,[4]; 1 h after 10 mg EMPA,2.27
same,Plasma concentrations Fasting/fed,[4]; 1.25 h after 10 mg EMPA,1.92
same,Plasma concentrations Fasting/fed,[4]; 1.5 h after 10 mg EMPA,1.71
same,Plasma concentrations Fasting/fed,[4]; 1.75 h after 10 mg EMPA,1.68
same,Plasma concentrations Fasting/fed,[4]; 2 h after 10 mg EMPA,1.61
same,Plasma concentrations Fasting/fed,[4]; 2.25 h after 10 mg EMPA,1.62
same,Plasma concentrations Fasting/fed,[4]; 2.75 h after 10 mg EMPA,1.55
same,Plasma concentrations Fasting/fed,[4]; 3 h after 10 mg EMPA,1.55
same,Plasma concentrations Fasting/fed,[4]; 4 h after 10 mg EMPA,1.40
same,Plasma concentrations Fasting/fed,[4]; 6 h after 10 mg EMPA,1.36
same,Plasma concentrations Fasting/fed,[4]; 8 h after 10 mg EMPA,1.30
same,Plasma concentrations Fasting/fed,[4]; 10 h after 10 mg EMPA,1.24
same,Plasma concentrations Fasting/fed,[4]; 12 h after 10 mg EMPA,1.21
same,Plasma concentrations Fasting/fed,[4]; 24 h after 10 mg EMPA,1.09
same,Plasma concentrations Fasting/fed,[4]; 36 h after 10 mg EMPA,1.09
same,Plasma concentrations Fasting/fed,[4]; 48 h after 10 mg EMPA,1.03
same,"AUC_%Extrap, geometric mean","[4]; Fasting, single 10 mg EMPA",1.80%
same,"AUC_%Extrap, geometric mean",[4]; [7],2.57%
same,"λz, geometric mean",[4]; [7],0.08 h⁻¹
same,k el,"[4]; human, plasma, oral, 10 mg",2.22e-05 s⁻¹
same,AUC(0-t),[4]; [8],1310 ng·h/mL
same,AUC(0-t),[4]; [9],951 ng·h/mL
same,AUC(0-inf),[4]; [8],1330 ng·h/mL
same,AUC(0-inf),[4]; [9],978 ng·h/mL
same,Cmax,[4]; [8],187 ng/mL
same,Cmax,[4]; [9],113 ng/mL
same,concentration at 1 h,"[4]; human, plasma, oral, 10 mg, Plasma concentrations, Fasting (n = 56), 1 h after 10 mg EMPA",166 ± 60.6 ng/mL
same,concentration at 2 h,"[4]; human, plasma, oral, 10 mg, Plasma concentrations, Fasting (n = 56), 2 h after 10 mg EMPA",152 ± 27.3 ng/mL
same,concentration at 3 h,"[4]; human, plasma, oral, 10 mg, Plasma concentrations, Fasting (n = 56), 3 h after 10 mg EMPA",123 ± 17.9 ng/mL
same,concentration at 4 h,"[4]; human, plasma, oral, 10 mg, Plasma concentrations, Fasting (n = 56), 4 h after 10 mg EMPA",104 ± 16.4 ng/mL
same,concentration at 6 h,"[4]; human, plasma, oral, 10 mg, Plasma concentrations, Fasting (n = 56), 6 h after 10 mg EMPA",72 ± 12.5 ng/mL
same,concentration at 8 h,"[4]; human, plasma, oral, 10 mg, Plasma concentrations, Fasting (n = 56), 8 h after 10 mg EMPA",52.6 ± 9.1 ng/mL
same,concentration at 10 h,"[4]; human, plasma, oral, 10 mg, Plasma concentrations, Fasting (n = 56), 10 h after 10 mg EMPA",40.4 ± 8.2 ng/mL
same,concentration at 12 h,"[4]; human, plasma, oral, 10 mg, Plasma concentrations, Fasting (n = 56), 12 h after 10 mg EMPA",30.7 ± 6.5 ng/mL
same,concentration at 24 h,"[4]; human, plasma, oral, 10 mg, Plasma concentrations, Fasting (n = 56), 24 h after 10 mg EMPA",10.1 ± 3 ng/mL
same,concentration at 36 h,"[4]; human, plasma, oral, 10 mg, Plasma concentrations, Fasting (n = 56), 36 h after 10 mg EMPA",3.5 ± 1.4 ng/mL
same,concentration at 48 h,"[4]; human, plasma, oral, 10 mg, Plasma concentrations, Fasting (n = 56), 48 h after 10 mg EMPA",2.2 ± 0.9 ng/mL
same,concentration at 0.5 h,"[4]; human, plasma, oral, 10 mg, Plasma concentrations, Fed (n = 58), high-fat diet, 0.5 h after 10 mg EMPA",34.2 ± 31 ng/mL
same,concentration at 1 h,"[4]; human, plasma, oral, 10 mg, Plasma concentrations, Fed (n = 58), high-fat diet, 1 h after 10 mg EMPA",72.9 ± 49.5 ng/mL
same,concentration at 1.25 h,"[4]; human, plasma, oral, 10 mg, Plasma concentrations, Fed (n = 58), high-fat diet, 1.25 h after 10 mg EMPA",87.4 ± 39.2 ng/mL
same,concentration at 1.5 h,"[4]; human, plasma, oral, 10 mg, Plasma concentrations, Fed (n = 58), high-fat diet, 1.5 h after 10 mg EMPA",95.7 ± 33.7 ng/mL
same,concentration at 1.75 h,"[4]; human, plasma, oral, 10 mg, Plasma concentrations, Fed (n = 58), high-fat diet, 1.75 h after 10 mg EMPA",94.1 ± 28.1 ng/mL
same,concentration at 2 h,"[4]; human, plasma, oral, 10 mg, Plasma concentrations, Fed (n = 58), high-fat diet, 2 h after 10 mg EMPA",94.2 ± 26.3 ng/mL
same,concentration at 2.25 h,"[4]; human, plasma, oral, 10 mg, Plasma concentrations, Fed (n = 58), high-fat diet, 2.25 h after 10 mg EMPA",91.5 ± 22.6 ng/mL
same,concentration at 2.75 h,"[4]; human, plasma, oral, 10 mg, Plasma concentrations, Fed (n = 58), high-fat diet, 2.75 h after 10 mg EMPA",83.9 ± 16 ng/mL
same,concentration at 3 h,"[4]; human, plasma, oral, 10 mg, Plasma concentrations, Fed (n = 58), high-fat diet, 3 h after 10 mg EMPA",79.4 ± 15 ng/mL
same,concentration at 4 h,"[4]; human, plasma, oral, 10 mg, Plasma concentrations, Fed (n = 58), high-fat diet, 4 h after 10 mg EMPA",74.4 ± 11.1 ng/mL
same,concentration at 6 h,"[4]; human, plasma, oral, 10 mg, Plasma concentrations, Fed (n = 58), high-fat diet, 6 h after 10 mg EMPA",53.1 ± 8.8 ng/mL
same,concentration at 8 h,"[4]; human, plasma, oral, 10 mg, Plasma concentrations, Fed (n = 58), high-fat diet, 8 h after 10 mg EMPA",40.5 ± 7.6 ng/mL
same,concentration at 10 h,"[4]; human, plasma, oral, 10 mg, Plasma concentrations, Fed (n = 58), high-fat diet, 10 h after 10 mg EMPA",32.7 ± 6.7 ng/mL
same,concentration at 12 h,"[4]; human, plasma, oral, 10 mg, Plasma concentrations, Fed (n = 58), high-fat diet, 12 h after 10 mg EMPA",25.4 ± 4.9 ng/mL
same,concentration at 24 h,"[4]; human, plasma, oral, 10 mg, Plasma concentrations, Fed (n = 58), high-fat diet, 24 h after 10 mg EMPA",9.3 ± 1.8 ng/mL
same,concentration at 36 h,"[4]; human, plasma, oral, 10 mg, Plasma concentrations, Fed (n = 58), high-fat diet, 36 h after 10 mg EMPA",3.2 ± 1.2 ng/mL
same,concentration at 48 h,"[4]; human, plasma, oral, 10 mg, Plasma concentrations, Fed (n = 58), high-fat diet, 48 h after 10 mg EMPA",2.2 ± 0.8 ng/mL
same,Tmax,[4]; [8],1.31 h
same,Tmax,[4]; [9],1.67 h
same,half-life,[4]; [8],8.18 h
same,half-life,[4]; [9],8.34 h
same,"ALD levels, after vs before EMPA",[5]; fasting group,no significant differences
same,PRC,"[5]; fasting group, 2 h after EMPA, before EMPA (37.3 ± 25.8) pg/mL, p < 0.05",52.2 ± 28.2 pg/mL
same,PRC,"[5]; fasting group, 4 h after EMPA, before EMPA (37.3 ± 25.8) pg/mL, p < 0.05",51.5 ± 23.7 pg/mL
same,Ang II,"[5]; fasting group, before EMPA (81.9 ± 9.9) pg/mL, p < 0.05",88.2 ± 10.3 pg/mL
same,"ALD levels, after vs before EMPA",[5]; fed group,no significant differences
same,PRC,"[5]; fed group, 4 h after EMPA, before EMPA (32.5 ± 22.4) pg/mL, p = ns",30.4 ± 18.9 pg/mL
same,Ang II,"[5]; fed group, before EMPA (91.6 ± 26.7) pg/mL, p < 0.05",82.6 ± 23.3 pg/mL
same,effect of a high-fat diet (HFD) on Cmax and AUC,[6]; 25 mg and 50 mg EMPA,reduce
same,bioavailability,[6],poor
same,time to reach Cmax,[6],1.33 to 3.0 h
